Earlier results on one compound are cited in US10376520B2, “Methods for the treatment of cardiovascular disorders” (Galapagos NV, priority 2015, dated 2019).

One data set has as its system RA patient. To be noted: 10 mg bid for 6 weeks in RA patient; cited from earlier work.
Another data set deals with patients. To be noted: first 3 months of exposure in the controlled clinical trials, cited from earlier work.

Like-named read-outs stand apart in the source and are kept apart here.

On to `C[C@@H]1CCN(C(=O)CC#N)C[C@@H]1N(C)c1ncnc2[nH]ccc12` [Tofacitinib], for which the “atherogenic index before and after treatment (unchanged)” value in the data set on RA patient is on record as “about 3.5”. For the same compound, in the data set on patients (5 mg twice daily arm), the “mean [HDL] increased by” value is on record as 10% and the “mean [LDL] increased by” value was 15%. Moreover, in the data set with patients (10 mg twice daily arm), the “mean [HDL] increased by” value was 12% and the “mean [LDL] increased by” value was 19%. Also, the “mean [LDL]/[HDL] ratios” value in the data set on patients was “essentially unchanged”.
